Where two headings read alike, the source gives them in different places. Values belong to the molecule of their own block, whether it stands above or below them. Non-standard residues stand in square brackets, D forms with d. Residues, ends and D or L forms follow the SMILES beside them. *: point of attachment. Dolaproine = CO[C@@H]([C@@H]1CCCN1)[C@@H](C)C(=O)O; Dil = CC[C@H](C)[C@H](NC)[C@@H](CC(=O)O)OC; X1 = C[C@@H](N*)[C@@H](O)c1ccccc1; NMeV = CN[C@H](C(=O)O)C(C)C
Tests used:
HCT116 cell line = conditions: comparison of molecules Ia and Ib; cited from earlier work
SKOV3 (ovarian tumour) = test: Antiproliferative activity (IC50), CellTiter Glo, SKOV3; type: cell-based, human
Excerpt: (§1) The IC50 (as per accepted terminology) activities of the compounds according to the invention 4-((3-amino-4-methoxyphenyl)(methyl)amino) quinoline-2-carbonitrile (ICQN-1); 5-(5-((2-cyanoquinolin-4-yl)(methyl)amino)-2-methoxyphenyl)-N-hydroxypent-4-ynamide (ICQN-2); and (E)-3-(5-((2-cyanoquinolin-4-yl)(methyl)amino)-2-methoxyphenyl)-N-hydroxyacrylamide (ICQN-3) were compared with compounds of the prior art and with a commercial and clinical reference compound, in particular MMAE (monomethylauristatin E). The IC50 activities were measured on various different cancer cell lines HCT116 (colorectal tumour), A549 (non-small cell lung cancer), NCI-N87 (gastric tumour), Mia-Paca-2 (pancreatic tumour), K562R (chronic myeloid leukemia), SKOV3 (ovarian tumour), SKBr3 (breast tumour, Her2 overexpression), MCF7 (breast tumour) and MDA-MB231 (breast tumour).
(§2) The cancer cell lines were obtained from the American Culture Collection (ATCC, Rockville, MD) or from the German collection of microorganisms and cell cultures of the Leibniz Institute (DSMZ, Braunschweig-Germany) or from the European collection of cell cultures (ECACC, England). The cancer cell lines were cultured according to the supplier's instructions.
(§3) The HCT-116 human colorectal carcinoma, SK-BR3 breast carcinoma, and SK-OV-3 ovarian carcinoma cells were cultured in Gibco McCoy's 5A medium supplemented with 10% foetal calf serum (FCS) and 1% glutamine.
(§4) The cells were counted using a Vi-cell XR (Beckman Coulter) and the cell viability was assessed by using 0.25% trypan blue dye exclusion assay. The cells were tested for the presence of mycoplasmas prior to the experiments with the Mycoplasma PCR detection kit (Applied Biological Materials Inc., Canada) according to the manufacturer's instructions, and only mycoplasma-free cells were used for the study. The cell lines were maintained at 37° C. in a humidified atmosphere containing 5% CO2.
(§5) After 24 hours of culturing, the cells were treated with the tested compounds at 10 different final concentrations. Each concentration was obtained from serial dilutions in culture medium starting from the stock solution. The control cells were treated with the carrier. The experiments were carried out in triplicate.
(§6) The measurements were performed after 72 hours of treatment using the CellTiter Glo assay (Promega) which makes it possible to measure through bioluminescence (quantification of adenosine triphosphate—ATP) the number of living cells, by using a PolarStar Omega microplate reader (BMG-Labtech).
(§7) The dose-response curves were plotted with the Graph Prism software application and the IC50 values were calculated using the Graph Prism software based on polynomial curves (four or five parameter logistic equations).

[1] = system: A549 (non-small cell lung cancer); test: Antiproliferative activity (IC50), CellTiter Glo, A549; type: cell-based
Excerpt: as §1, §2
(§8) The A549 lung carcinoma cells, K562R myeloid leukemia cells, and the NCI-N87 gastric carcinoma cells were cultured in Gibco Roswell Park Memorial Institute (RPMI) 1640 medium supplemented with 10% foetal calf serum (FCS) and 1% glutamine. The Mia-Paca2 carcinoma cells were cultured in Gibco Dulbecco's Modified Eagle Medium (DMEM) supplemented with 10% foetal calf serum (FCS) and 1% glutamine.
as §4, §5, §6, §7

MCF7 (breast tumour) = test: Antiproliferative activity (IC50), CellTiter Glo, MCF7; type: cell-based; conditions: unconjugated; for IC50: free, 72 hours of treatment, read-out: MCF7 CI50
Excerpt: as §1, §2
(§9) The breast adenocarcinoma cells MDA-MB231 and MCF7 were cultured in Gibco RPMI 1640 culture medium supplemented with 10% foetal calf serum (FCS) and 1% glutamine.
as §4, §5, §6, §7

[2] = system: K562R (chronic myeloid leukemia); test: Antiproliferative activity (IC50), CellTiter Glo, K562R; type: cell-based
Excerpt: as §1, §2, §8, §4, §5, §6, §7
The K562R (chronic myeloid leukemia) cells have an MDR profile that allows them to be resistant to several chemotherapeutic compounds including the reference compound MMAE.

[3] = system: SKBr3 (breast tumour, Her2 overexpression); test: Antiproliferative activity (IC50), CellTiter Glo, SKBr3; type: cell-based, human
Excerpt: as §1, §2, §3, §4, §5, §6, §7

NCI-N87 (gastric tumour) = test: Antiproliferative activity (IC50), CellTiter Glo, NCI-N87; type: cell-based
Excerpt: as §1, §2, §8, §4, §5, §6, §7

[4] = system: Mia-Paca-2 (pancreatic tumour); test: Antiproliferative activity (IC50), CellTiter Glo, Mia-Paca-2; type: cell-based
Excerpt: as §1, §2, §8, §4, §5, §6, §7

[5] = system: MDA-MB231 (breast tumour); test: Antiproliferative activity (IC50), CellTiter Glo, MDA-MB231; type: cell-based; conditions: unconjugated; for IC50: free, 72 hours of treatment, read-out: MDA-MB231 CI50
Excerpt: as §1, §2, §9, §4, §5, §6, §7

[6] = system: HCT116 (colorectal tumour); test: Antiproliferative activity (IC50), CellTiter Glo, HCT116; type: cell-based, human
Excerpt: as §1, §2, §3, §4, §5, §6, §7

cell line HCT116 = conditions: molecules 4f/4j and 4g/4k of Alami et al. J. Med. Chem. 2019; cited from earlier work
[7] = Homo sapiens, SK-OV-3, free, unconjugated, 72 hours of treatment, read-out: SKOV3 IC50
[8] = Homo sapiens, SK-OV-3, nM given only in VB118 cells, read-out: SKOV-3 (antiproliferative activity, Table 6)
[9] = ratio versus prior-art payload ICQO-1
[10] = ratio versus MMAE, unconjugated
[11] = Homo sapiens, K-562R, free, unconjugated, 72 hours of treatment, read-out: K562R IC50
[12] = Homo sapiens, K-562R, nM given only in VB118 cells, read-out: K562R (antiproliferative activity, Table 6)
[13] = resistant cancer cells, MDR profile
[14] = Homo sapiens, SK-BR-3, free, unconjugated, 72 hours of treatment, read-out: SKBr3 IC50
[15] = Homo sapiens, SK-BR-3, nM given only in VB118 cells, read-out: SKBR3 (antiproliferative activity, Table 6)
[16] = Homo sapiens, NCI-N87, free, unconjugated, 72 hours of treatment, read-out: NIC-N87 IC50
[17] = Homo sapiens, NCI-N87, nM given only in VB118 cells, read-out: NCI-N87 (antiproliferative activity, Table 6)
[18] = Homo sapiens, MIA PaCa-2, free, unconjugated, 72 hours of treatment, read-out: Mia-Paca-2 IC50
[19] = Homo sapiens, MIA PaCa-2, nM given only in VB118 cells, read-out: Mia-Paca-2 (antiproliferative activity, Table 6)

Structure (SMILES): CN(c1ccc2c(c1)c1ccccc1n2C)c1cc(C#N)nc2ccccc12 [Ib]
drop in cytotoxic activity (factor) on replacing Me by CN at position 2 of quinoline (HCT116 cell line): 170

IC50 (SKOV3 (ovarian tumour); Homo sapiens, SK-OV-3, comparative data 13b / ICQN-1, unit inferred, read-out: SKOV3 (antiproliferative activity, Table 3)): 0.44 nM
IC50 (SKOV3 (ovarian tumour); [7]): 0.44 nM
IC50 (SKOV3 (ovarian tumour); [8]): 0.44 nM
IC50 ([1]; Homo sapiens, A549, comparative data 13b / ICQN-1, unit inferred, read-out: A549 (antiproliferative activity, Table 3)): 0.72 nM
IC50 ([1]; Homo sapiens, A549, free, unconjugated, 72 hours of treatment, read-out: A549 IC50): 0.72 nM
IC50 (MCF7 (breast tumour); Homo sapiens, MCF7): 0.17 nM
IC50 ([2]; Homo sapiens, K-562R, comparative data 13b / ICQN-1, unit inferred, read-out: K562R (antiproliferative activity, Table 3)): 0.47 nM
IC50 [2, 11]: 0.47 nM
IC50 [2, 12]: 0.47 nM
IC50 ([2]; Homo sapiens, K-562R, resistant cancer cells, MDR profile, read-out: K562R (PgP+) IC50): 0.47 nM
IC50 ([3]; Homo sapiens, SK-BR-3, comparative data 13b / ICQN-1, unit inferred, read-out: SKBr3 (antiproliferative activity, Table 3)): 0.36 nM
IC50 [3, 14]: 0.36 nM
IC50 [3, 15]: 0.36 nM
IC50 (NCI-N87 (gastric tumour); Homo sapiens, NCI-N87, comparative data 13b / ICQN-1, unit inferred, read-out: NCI-N87 (antiproliferative activity, Table 3)): 0.3 nM
IC50 (NCI-N87 (gastric tumour); [16]): 0.3 nM
IC50 (NCI-N87 (gastric tumour); [17]): 0.3 nM
IC50 ([4]; Homo sapiens, MIA PaCa-2, comparative data 13b / ICQN-1, unit inferred, read-out: Mia-Paca2 (antiproliferative activity, Table 3)): 0.49 nM
IC50 [4, 18]: 0.49 nM
IC50 [4, 19]: 0.49 nM
IC50 ([5]; Homo sapiens, MDA-MB-231): 0.34 nM
IC50 ([6]; Homo sapiens, HCT-116, comparative data 13b / ICQN-1, unit inferred, read-out: HCT116 (antiproliferative activity, Table 3)): 0.23 nM
IC50 ([6]; Homo sapiens, HCT-116, free, unconjugated, 72 hours of treatment, read-out: HCT116 IC50): 0.23 nM
Structure (SMILES): COc1ccc(N(C)c2cc(C#N)nc3ccccc23)cc1N [ICQN-1, 4-((3-amino-4-methoxyphenyl)(methyl)amino) quinoline-2-carbonitrile]
Ratio of activity 13b vs ICQN-1, SKOV3 (SKOV3 (ovarian tumour); ratio versus compound 13b): 3
IC50 ratio ICQN-1 vs ICQO-1, SKOV-3 (SKOV3 (ovarian tumour); [9]): 3
Potency ratio of ICQN-1 vs MMAE (MMAE IC50 / ICQN-1 IC50), A549 [1, 10]: 6
Ratio of activity 13b vs ICQN-1, A549 ([1]; ratio versus compound 13b): 1
IC50 Ratio ICQN1/MMAE, MCF7 (MCF7 (breast tumour); ratio versus MMAE): 3
Ratio of activity 13b vs ICQN-1, K562R ([2]; ratio versus compound 13b): 8
Ratio vs ICQO-1, K562R (PgP+) [2, 13]: 4.2
Ratio vs MMAE, K562R (PgP+) [2, 13]: 74
Ratio of activity 13b vs ICQN-1, SKBr3 ([3]; ratio versus compound 13b): 6
IC50 Ratio ICQN1/MMAE, NCI-N87 (NCI-N87 (gastric tumour); [10]): 22
Ratio of activity 13b vs ICQN-1, NCI-N87 (NCI-N87 (gastric tumour); ratio versus compound 13b): 15
IC50 Ratio ICQN1/MMAE, Mia-Paca-2 [4, 10]: 6
Ratio of activity 13b vs ICQN-1, Mia-Paca2 ([4]; ratio versus compound 13b): 2
IC50 Ratio ICQN1/MMAE, MDA-MB231 ([5]; ratio versus MMAE): 4
IC50 ratio MMAE/ICQN-1 (fold potency of ICQN-1 over MMAE), HCT116 [6, 10]: 7
Ratio of activity 13b vs ICQN-1, HCT116 ([6]; ratio versus compound 13b): ~10
IC50 ratio ICQN-1 vs ICQO-1, HCT-116 [6, 9]: 44

Structure (SMILES): C=C(c1ccc2c(c1)c1ccccc1n2C)c1cc(C#N)nc2ccccc12
IC50 (cell line HCT116): 12 nM

IC50 (SKOV3 (ovarian tumour); [7]): 0.59 nM
IC50 (SKOV3 (ovarian tumour); [8]): 0.59 nM
IC50 [2, 11]: 0.36 nM
IC50 [2, 12]: 0.36 nM
IC50 [3, 14]: 0.38 nM
IC50 [3, 15]: 0.38 nM
IC50 (NCI-N87 (gastric tumour); [16]): 0.93 nM
IC50 (NCI-N87 (gastric tumour); [17]): 0.93 nM
IC50 [4, 18]: 0.29 nM
IC50 [4, 19]: 0.29 nM
Structure (SMILES): CCOc1ccc(N(C)c2cc(C#N)nc3ccccc23)cc1N [ICQN-2, 4-((3-amino-4-ethoxyphenyl)(methyl)amino)quinoline-2-carbonitrile]

Structure (SMILES): CC[C@H](C)[C@@H]([C@@H](CC(=O)N1CCC[C@H]1[C@H](OC)[C@@H](C)C(=O)N[C@H](C)[C@@H](O)c1ccccc1)OC)N(C)C(=O)[C@@H](NC(=O)[C@@H](NC)C(C)C)C(C)C [MMAE, monomethylauristatin E, reference compound] (H-[NMeV]V[Dil][Dolaproine]-X1)
IC50 (SKOV3 (ovarian tumour); free, unconjugated, 72 hours of treatment, read-out: SKOV3 IC50): 0.08 nM
IC50 ([1]; free, unconjugated, 72 hours of treatment, read-out: A549 IC50): 4.12 nM
IC50 (MCF7 (breast tumour)): 0.58 nM
IC50 ([2]; free, unconjugated, 72 hours of treatment, read-out: K562R IC50): 19.7 nM
IC50 ([2]; resistant cancer cells, MDR profile, read-out: K562R (PgP+) IC50): 35 nM
IC50 ([3]; free, unconjugated, 72 hours of treatment, read-out: SKBr3 IC50): 0.06 nM
IC50 (NCI-N87 (gastric tumour); free, unconjugated, 72 hours of treatment, read-out: NIC-N87 IC50): 6.58 nM
IC50 ([4]; free, unconjugated, 72 hours of treatment, read-out: Mia-Paca-2 IC50): 3.02 nM
IC50 [5]: 1.25 nM
IC50 ([6]; free, unconjugated, 72 hours of treatment, read-out: HCT116 IC50): 1.52 nM

Source: US12172965B2, “Drug conjugate comprising quinoline derivatives” (UNIVERSITE PARIS-SACLAY, priority 2018, dated 2024)
